What was measured:
[1] = system: olfactory neurons (line 24); assay: Spreading and neurite growth on coated substrates; format: cell-based, rat; details: for mean neurite length per olfactory neuron: mean ± SEM
Experimental: FIG. 28: Mean neurite length on the different substrates after one hour, two hours and eight hours in vitro. Mean value±SEM. More than 100 neurons were analyzed in each experimental condition.
Cells, in serum-free medium containing 0.1% heat inactivated BSA were seeded on KAL- or laminin-coated wells, and maintained for 20 min to 22 h at 37° C. Adherent cells were fixed, stained with toluidine blue, and photographied with an inverted microscope.

[2] = system: olfactory neurons (line 24); assay: Adhesion and peptide/serum inhibition assay, colorimetric; format: cell-based, rat; details: for percentage of olfactory neurons (line 24) adherent on substrate: substrate coated to microtiter wells
Experimental: (§1) Adhesion assays were performed as described in (à compléter) with some modifications. Coating with the various molecules, at the indicated concentrations in 0.5 ml PBS, was performed in plastic 24-well multidishes (Nunclon™) at 37° C. (1 h or overnight).The cells were then washed three times with PBS, coating blocked with 1% heat-inactivated BSA (à compléter) for at least 1 h at 37° C., followed by three PBS washes, before addition of the cells (10^6 cells per ml in serum-free medium containing 0.1% heat-inactivated BSA). In standard experiments, purified KAL was applied at 3 μg/ml. Other substrates were used as control, fibronectin (20% g/ml) and poly-L-lysine (100 μg/ml).
(§2) Cells were incubated for 30 min to 1 h on coated wells. Medium was then aspirated and unbound cells removed by one wash with PBS. The adherent cells were fixed with […] paraformaldehyde (PFA) in PBS and stained with 0.1% crystal violet. Quantification of the attached cells was performed using a colorimetric method (à compléter). Data are expressed as the percentage of adherent cells on each tested substrate with reference to poly-L-lysine. Assays in triplicate were repeated in three independent experiments.
(§3) A 32 aminoacid peptide (32R1-FIG. 24) was synthesized (Syntiem laboratory). Control peptides were C17 (NH2CSLVPTKKKRRKTTDGF-COON) (SEQ ID NO:7) derived from the second fibronectin type III repeat of human KAL and C 16V (NHzCGSYANNNRYGRDPPTSV-000H), (SEQ ID NO:8) derived from the EYA1 protein (a completer). The peptides, at various concentrations (10 to 30 μg/ml), were directly adsorbed on polystyrene microtiter wells (Immulon 4, Nunc). Adhesion assays were performed as described above.
In peptide inhibition assays, cells were preincubated with the peptides at different concentrations (10 to 100 μg/ml) for 1 h at 4° C., then plated to KAL-coated wells, and incubated for a further 30 min period of time.

CHO-677 cells = assay: Adhesion assay with HS-deficient mutant cells; format: cell-based, Chinese Hamster
Excerpt: The parental CHO cell line and the human KAL-transfected CHO clones (1-1 and 2-3) were cultivated in DMEM medium supplemented with 8% fetal calf serum (PAA, Jacques Boy, France). • Cells from the olfactory neuronal line 13.S.1.24 also named “line 24” (kindly provided by Dr. Astic, Lyon, France) were cultivated in DMEM supplemented with 10% calf serum. Porcine kidney epithelial cells (LLCPK) ATCC NO CRL1392 • Mouse GnRH neurons (GT1, subclone 1) • Wild-type CHO-K1, mutant CHO-K1-677 (Lidholt K. et al., 1992) and CHO-K1-606 (Bame et al., 1994) cell lines were provided to us by Dr. Esko, the mutant CHO-K1-745 (Esko et al., 1987) cell line was obtained from ATCC. The CHO-K1-677 cells display undetectable levels of heparan-sulfate (HS), but synthesize chondroitin sulfate (CS) at a level 3 times higher than wild-type CHO-K1 cells. The CHO-K1-606 cells express HS and CS at levels similar to those observed in wild-type, but HS is 2 to 3 times less sulfated than in wild-type cells. The CHO-K1-745 cells, deficient in xylosyltransferase, synthesize neither HS nor CS (Esko et al., 1987). Wild-type and mutant CHO-K1cells were maintained in Ham F12 medium supplemented with 10% fetal calf serum.
as §1, with “Other substrates were used as control, fibronectin (20% g/ml) and poly-L-lysine (100 μg/ml).” left out
(§4) Cells were incubated for 30 min to 1 h on coated wells. […] Quantification of the attached cells was performed using a colorimetric method (à compléter). Data are expressed as the percentage of adherent cells on each tested substrate with reference to poly-L-lysine. […]

CHO-K1 cells = assay: Adhesion and inhibition assay, colorimetric; format: cell-based, Chinese Hamster
Experimental: as §1, §2
Heparin, heparan sulfate or chondroitin sulfate (up to 1 mg/ml in PBS) was added in KAL-coated-BSA-saturated wells, and allowed to interact for 2 h at 37° C. […]

PC12 cells [3] = assay: Adhesion and inhibition assay, colorimetric; format: cell-based, rat; details: data not shown
Experimental: as §1, §2
Cells were incubated for 5 min at room temperature in HBSS containing 5 mM EDTA, washed once with HBSS and preincubated for 1 h at 4° C. in HBSS containing 0.1% BSA in the absence or in the presence of Ca^++ and/or Mg^++ prior plating.
Heparin, heparan sulfate or chondroitin sulfate (up to 1 mg/ml in PBS) was added in KAL-coated-BSA-saturated wells, and allowed to interact for 2 h at 37° C. After three washings with PBS, CHO-K1or PC12 cells were plated, and incubated as usual.
as §3, with “Adhesion assays were performed as described above.” left out

[4] = system: P5 cerebellar granule cells; assay: Adhesion assay, colorimetric, relative to poly-L-lysine; format: cell-based, mouse; details: 1 hour
Experimental: as §1, §2

PC12 cells [5] = assay: Adhesion assay on coated wells, cell counter; includes antibody, heparin and R1-FNIII inhibition; format: cell-based, rat
Experimental: (§5) 24-well microtiter plates were coated at 37 °C overnight with 20 μg/ml of laminin, 5μg/ml of KAL in PBS, pH=7.4. The plates were washed twice with PBS and non specific sites were blocked by the addition of 1% BSA in PBS for 1 hour at 37° C. Wells were washed twice with PBS. Cerebellar neurons or PC12 cells were resuspended in DMEM to a final concentration of 10^6 cells/ml. 500 μl of this suspension was added to each coated well. Cells were also added to control wells that had been coated with BSA alone. Plates were incubated at 37° C. for 90 min in a 5% CO2 humidified atmosphere. The wells were washed gently twice with 0.5 ml PBS. To remove adherent cells from the wells, 0.5 ml of 0.05% trypsin-EDTA were added to each well. After 10 min at 37 °C, the 0.5 ml of trypsin-EDTA containing the detached cells were removed and the number of cells was determined by using a cell counter (Coutler, ZM equipped with a Coultronic 256 channelizer).
(§6) Each cell adhesion assay was carried out in triplicate. The ration of adherent cells with respect to the total number of cell ×100 was determined as the % of cell adhesion.
For inhibition of cell adhesion, 5 ×10^5 PC12 cells were deposited on areas previously coated with KAL and with antiserum directed against the human KAL protein at different concentrations and treated as described for adhesion assay. […]

[6] = system: cerebellar granule neurons (aggregates); assay: Survival and neurite outgrowth of granule cell aggregates on coated substrates; format: cell-based, mouse; details: 48 hours culture
Experimental: Reaggregate cultures of cerebellar neurons from mice on postnatal day-5 were prepared according to Gao et al. (1995). After dissociation, cells were further purified by preplating on a poly-L-Lysine treated (25 μg/ml) substrate for 30 min and plated in uncoated 96-well dishes (5 10^5 cells/well) in BME plus 10% horse serum, 5% fetal calf serum, 9 mg/ml glucose, 0.3 mg/ml glutamine, 50 U/ml penicillin and 0.1 mg/ml streptomycin. Aggregates (100-200 cells) were harvested after 24 h to be used in coculture experiments.
prepared as described in the Materials and Methods section. Cerebellar granule neurons were seeded on surfaces that had been coated with KAL protein. Polylysine and bovine serum albumin (BSA) were used as positive and negative controls respectively.

CHO-606 cells = assay: Adhesion assay with mutant cells expressing undersulfated HS; format: cell-based, Chinese Hamster; details: KAL substrate, versus wild-type CHO-K1
Excerpt: (§7) The parental CHO cell line and the human KAL-transfected CHO clones (1-1 and 2-3) were cultivated in DMEM medium supplemented with 8% fetal calf serum (PAA, Jacques Boy, France). • Cells from the olfactory neuronal line 13.S.1.24 also named “line 24” (kindly provided by Dr. Astic, Lyon, France) were cultivated in DMEM supplemented with 10% calf serum. Porcine kidney epithelial cells (LLCPK) ATCC NO CRL1392 • Mouse GnRH neurons (GT1, subclone 1) • Wild-type CHO-K1, mutant CHO-K1-677 (Lidholt K. et al., 1992) and CHO-K1-606 (Bame et al., 1994) cell lines were provided to us by Dr. Esko, the mutant CHO-K1-745 (Esko et al., 1987) cell line was obtained from ATCC. The CHO-K1-677 cells display undetectable levels of heparan-sulfate (HS), but synthesize chondroitin sulfate (CS) at a level 3 times higher than wild-type CHO-K1 cells. The CHO-K1-606 cells express HS and CS at levels similar to those observed in wild-type, but HS is 2 to 3 times less sulfated than in wild-type cells. The CHO-K1-745 cells, deficient in xylosyltransferase, synthesize neither HS nor CS (Esko et al., 1987). […]
as §4

cerebellar granule cells = assay: Adhesion assay on coated wells, adherent cells counted with a cell counter (% of total cells); format: cell-based, mouse; details: coated dishes, 90 minute incubation
Experimental: Cerebellar cell cultures. Dissociated cell cultures were obtained from Swiss mouse cerebella on postnatal day 5. At this age, granule cells account for up to 90% of the total cell population, glial cells included. Cells were dissociated by combined trituration and trypsinisation, and grown in chemically defined medium DMEM/Ham's F12 (3 vol/1 vol) containing 0.2 mM glutamine, 5 μg/ml insulin, 100 μg/ml tranferrin, 20 nM progesterone, […] purrescine, 30 nM selenium 100 U/ml penicillin and 0.1 mg/ml streptomycin.
as §5, with “Cells were also added to control wells that had been coated with BSA alone. Plates were incubated at 37° C. for 90 min in a 5% CO2 humidified atmosphere. The wells were washed gently twice with 0.5 ml PBS. To remove adherent cells from the wells, 0.5 ml of 0.05% trypsin-EDTA were added to each well.” left out
as §6

CHO-745 cells = assay: Adhesion assay with HS- and CS-deficient mutant cells; format: cell-based, Chinese Hamster; details: KAL substrate
Excerpt: as §7, §4

fibronectin [reference compound]
mean neurite length per olfactory neuron ([1]; eight hours after plating): 63 (±2,5) μm | mean neurite length per olfactory neuron ([1]; one hour on substrate): 46 (±4) μm

NHzCGSYANNNRYGRDPPTSV-000H [C16V, reference compound]
percentage of olfactory neurons (line 24) adherent on substrate [2]: no adhesion

chondroitinase ABC
effect of enzyme treatment of CHO-677 cells on adhesion on fibronectin substrate (CHO-677 cells; data not shown): did not affect adhesion | effect of enzyme treatment of CHO-677 cells on adhesion to KAL (CHO-677 cells; increasing concentrations, prior plating): virtually complete inhibition | decrease of adhesion of CHO-K1 cells on KAL after enzyme treatment (CHO-K1 cells; cells treated prior plating): about 50%

O=C(O)CN(CCN(CC(=O)O)CC(=O)O)CC(=O)O [EDTA]
effect of chelating Ca++ and Mg++ on adhesion of PC12 cells to KAL (PC12 cells [3]; cells incubated with EDTA for 5 minutes prior plating): did not modified the amount of adhering cells

NH2CSLVPTKKKRRKTTDGF-COON [17R2, reference compound]
effect of preincubation with peptide on adhesion to KAL ([2]; 50 μM): had no effect | percentage of olfactory neurons (line 24) adherent on substrate [2]: no adhesion

laminin [reference compound]
percentage of cell adhesion relative to PLL substrate (set as 100%) [4]: 50%

heparin
inhibition of CHO-K1 cell adhesion on KAL (CHO-K1 cells; KAL-coated wells preincubated with 100 μg/ml): approximately 50% | inhibition of PC12 cell adhesion on KAL (PC12 cells [3]; HS or CS pretreatment of KAL-coated wells): 50% | heparin concentration from which adhesion of PC12 cells to KAL protein was inhibited (PC12 cells [5]; heparin present in KAL-coated wells): ≥ 0.03 mg/mL

NHz-RPSRWYQFRVAAVNVHGTRGFTAPSKHFRSSK-000H [32R1]
mean neurite length per olfactory neuron ([1]; eight hours after plating): 63 (±2) μm | mean neurite length per olfactory neuron ([1]; one hour on substrate): 32 (±4) μm | effect of preincubation with peptide on adhesion to fibronectin and laminin substrates [2]: had no effect | concentration of peptide giving complete inhibition of adhesion to KAL substrate ([2]; cells preincubated with peptide): 26 µM | percentage of olfactory neurons (line 24) adherent on substrate [2]: 80% | adhesion of PC12 cells on peptide substrate (PC12 cells [3]; compared with olfactory neurons): same results

B1: KAL protein: recombinant human KAL gene product (680 aa, SwissProt P23352) purified from transfected CHO cells CHKAL2-3/d11 (protein)
chain: AGPGAAAARRLDESLSAGSVQRAPCASRCLSLQITRISAFFQHFQNNGSLVWCQNHKQCSKCLEPCKESGDLRKHQCQSFCEPLFPKKSYECLTSCEFLKYILLVKQGDCPAPEKASGFAAACVESCEVDNECSGVKKCCSNGCGHTCQVPKTLYKGVPLKPRKELRFTELQSGQLEVKWSSKFNISIEPVIYVVQRRWNYGIHPSEDDATHWQTVAQTTDERVQLTDIRPSRWYQFRVAAVNVHGTRGFTAPSKHFRSSKDPSAPPAPANLRLANSTVNSDGSVTVTIVWDLPEEPDIPVHHYKVFWSWMVSSKSLVPTKKKRRKTTDGFQNSVILEKLQPDCDYVVELQAITYWGQTRLKSAKVSLHFTSTHATNNKEQLVKTRKGGIQTQLPFQRRRPTRPLEVGAPFYQDGQLQVKVYWKKTEDPTVNRYHVRWFPEACAHNRTTGSEASSGMTHENYIILQDLSFSCKYKVTVQPIRPKSHSKAEAVFFTTPPCSALKGKSHKPIGCLGEAGHVLSKVLAKPENLSASFIVQDVNITGHFSWKMAKANLYQPMTGFQVTWAEVTTESRQNSLPNSIISQSQILPSDHYVLTVPNLRPSTLYRLEVQVLTPGGEGPATIKTFRTPELPPSSAHRHLKHRHPHHYKPSPERY
survival and neurite outgrowth of granule cell aggregates on coated surface [6]: large halo of neuritic processes | percentage of cell adhesion relative to PLL substrate (set as 100%) [4]: 80% | stimulation of neurite elongation by comparison with fibronectin and peptide 32R1 ([1]; eight hours after plating): 30% | mean neurite length per olfactory neuron ([1]; eight hours after plating): 81 (±5) μm | mean neurite length per olfactory neuron ([1]; one hour on substrate): 66 (±2,5) μm | adhesion of CHO-606 cells to the substrate (CHO-606 cells): comparable to that found in wild-type | decrease of adhesion of CHO-677 cells compared to wild-type CHO-K1 cells (CHO-677 cells; KAL substrate): about 70% | percentage of adherent cells relative to the total number of cells deposited (cerebellar granule cells): 80% | percentage of olfactory neurons (line 24) adherent on substrate [2]: 70% | adhesion of CHO-745 cells on the substrate (CHO-745 cells): No adhesion | concentration of KAL protein giving maximum percentage of cell adhesion (PC12 cells [5]; coating concentration, results not shown, cell type not specified): 5 µg/mL

Source: patent publication US20070037736A1, “Therapeutic composition comprising the KAL protein and use of the KAL protein for the treatment of retinal, renal, neuronal and neural injury” (INSTITUT PASTEUR, priority 1997, published 2007)
